Test results: BindingDB's records for doi:10.1021/cc050016r (Uppsala University, 2005)
Where “and” joins values, the source holds several entries; their conditions need not be identical. Equal values may be shown once.

molecular target: HIV-1 protease (Human immunodeficiency virus, UniProt Q9YQ34); assay: Fluorometric Assay
Description: Fluorometric assay using HIV-1 protease.

Sequence of HIV-1 protease (Q9YQ34 whole entry): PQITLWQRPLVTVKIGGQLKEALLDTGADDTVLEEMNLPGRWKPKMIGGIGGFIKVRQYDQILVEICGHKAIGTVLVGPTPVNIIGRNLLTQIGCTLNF

| Structure (SMILES) | Ki |
| --- | --- |
| CNC(=O)[C@@H](NC(=O)[C@H](OCc1ccccc1C(=O)NC(C)(C)C)[C@H](O)[C@@H](O)[C@@H](OCc1ccccc1C(=O)NC(C)(C)C)C(=O)N[C@H](C(=O)NC)C(C)C)C(C)C [HIV-1 Protease Inhibitor, 6b] | 700 nM |
| CNC(=O)[C@@H](NC(=O)[C@H](OCc1cccc(C(=O)N2CCOCC2)c1)[C@H](O)[C@@H](O)[C@@H](OCc1cccc(C(=O)N2CCOCC2)c1)C(=O)N[C@H](C(=O)NC)C(C)C)C(C)C [HIV-1 Protease Inhibitor, 7d] | 300 nM |
| CNC(=O)[C@@H](NC(=O)[C@H](OCc1cccc(C(=O)N2CCCC2)c1)[C@H](O)[C@@H](O)[C@@H](OCc1cccc(C(=O)N2CCCC2)c1)C(=O)N[C@H](C(=O)NC)C(C)C)C(C)C [HIV-1 Protease Inhibitor, 7c] | 200 nM |
| CCOC(=O)c1ccc(NC(=O)c2ccccc2CO[C@@H](C(=O)N[C@H](C(=O)NC)C(C)C)[C@H](O)[C@@H](O)[C@@H](OCc2ccccc2C(=O)Nc2ccc(C(=O)OCC)cc2)C(=O)N[C@H](C(=O)NC)C(C)C)cc1 [HIV-1 Protease Inhibitor, 6k] | 200 nM |
| CNC(=O)[C@@H](NC(=O)[C@H](OCc1ccccc1C(=O)Nc1cccc2cnccc12)[C@H](O)[C@@H](O)[C@@H](OCc1ccccc1C(=O)Nc1cccc2cnccc12)C(=O)N[C@H](C(=O)NC)C(C)C)C(C)C [HIV-1 Protease Inhibitor, 6n] | 800 nM |
| CNC(=O)[C@@H](NC(=O)[C@H](OCc1ccccc1C(=O)NC1CCCCC1)[C@H](O)[C@@H](O)[C@@H](OCc1ccccc1C(=O)NC1CCCCC1)C(=O)N[C@H](C(=O)NC)C(C)C)C(C)C [HIV-1 Protease Inhibitor, 6f] | 200 nM and 196 nM |
| CNC(=O)[C@@H](NC(=O)[C@H](OCc1ccccc1C(=O)N1CCc2ccccc21)[C@H](O)[C@@H](O)[C@@H](OCc1ccccc1C(=O)N1CCc2ccccc21)C(=O)N[C@H](C(=O)NC)C(C)C)C(C)C [HIV-1 Protease Inhibitor, 6j] | 800 nM |
| CNC(=O)[C@@H](NC(=O)[C@H](OCc1ccccc1C(=O)Nc1nccs1)[C@H](O)[C@@H](O)[C@@H](OCc1ccccc1C(=O)Nc1nccs1)C(=O)N[C@H](C(=O)NC)C(C)C)C(C)C [HIV-1 Protease Inhibitor, 6g] | 700 nM |
| CNC(=O)[C@@H](NC(=O)[C@H](OCc1ccccc1C(=O)N1CCOCC1)[C@H](O)[C@@H](O)[C@@H](OCc1ccccc1C(=O)N1CCOCC1)C(=O)N[C@H](C(=O)NC)C(C)C)C(C)C [HIV-1 Protease Inhibitor, 6e] | > 5000 nM |
| CNC(=O)[C@@H](NC(=O)[C@H](OCc1ccccc1C(=O)N1CCCC1)[C@H](O)[C@@H](O)[C@@H](OCc1ccccc1C(=O)N1CCCC1)C(=O)N[C@H](C(=O)NC)C(C)C)C(C)C [HIV-1 Protease Inhibitor, 6d] | 400 nM |
| CCCCNC(=O)c1ccccc1CO[C@@H](C(=O)N[C@H](C(=O)NC)C(C)C)[C@H](O)[C@@H](O)[C@@H](OCc1ccccc1C(=O)NCCCC)C(=O)N[C@H](C(=O)NC)C(C)C [HIV-1 Protease Inhibitor, 6c] | 600 nM |

Now from value to molecule:

| Ki | Structure (SMILES) |
| --- | --- |
| 20 nM | CNC(=O)[C@@H](NC(=O)[C@H](OCc1cccc(C(=O)NC2CCCCC2)c1)[C@H](O)[C@@H](O)[C@@H](OCc1cccc(C(=O)NC2CCCCC2)c1)C(=O)N[C@H](C(=O)NC)C(C)C)C(C)C [HIV-1 Protease Inhibitor, 7e] |
| 7 nM and 20 nM | CNC(=O)[C@@H](NC(=O)[C@H](OCc1ccccc1C(=O)Nc1ccccc1)[C@H](O)[C@@H](O)[C@@H](OCc1ccccc1C(=O)Nc1ccccc1)C(=O)N[C@H](C(=O)NC)C(C)C)C(C)C [HIV-1 Protease Inhibitor, 6h] |
| 2 nM and 2.9 nM | CNC(=O)[C@@H](NC(=O)[C@H](OCc1cccc(C(=O)NCc2ccccc2)c1)[C@H](O)[C@@H](O)[C@@H](OCc1cccc(C(=O)NCc2ccccc2)c1)C(=O)N[C@H](C(=O)NC)C(C)C)C(C)C [HIV-1 Protease Inhibitor, 7g] |
| 70 nM and 118 nM | CNC(=O)[C@@H](NC(=O)[C@H](OCc1ccccc1C(=O)Nc1cccnc1)[C@H](O)[C@@H](O)[C@@H](OCc1ccccc1C(=O)Nc1cccnc1)C(=O)N[C@H](C(=O)NC)C(C)C)C(C)C [HIV-1 Protease Inhibitor, 6i] |
| > 5000 nM | CNC(=O)c1ccccc1CO[C@@H](C(=O)N[C@H](C(=O)NC)C(C)C)[C@H](O)[C@@H](O)[C@@H](OCc1ccccc1C(=O)NC)C(=O)N[C@H](C(=O)NC)C(C)C [HIV-1 Protease Inhibitor, 6a] |
| 20 nM | CNC(=O)c1cccc(CO[C@@H](C(=O)N[C@H](C(=O)NC)C(C)C)[C@H](O)[C@@H](O)[C@@H](OCc2cccc(C(=O)NC)c2)C(=O)N[C@H](C(=O)NC)C(C)C)c1 [HIV-1 Protease Inhibitor, 7a] |
| 3 nM and 6.5 nM | CCCCNC(=O)c1cccc(CO[C@@H](C(=O)N[C@H](C(=O)NC)C(C)C)[C@H](O)[C@@H](O)[C@@H](OCc2cccc(C(=O)NCCCC)c2)C(=O)N[C@H](C(=O)NC)C(C)C)c1 [HIV-1 Protease Inhibitor, 7b] |
| 6 nM and 8.5 nM | CNC(=O)[C@@H](NC(=O)[C@H](OCc1ccccc1C(=O)Nc1cccc(Cl)c1)[C@H](O)[C@@H](O)[C@@H](OCc1ccccc1C(=O)Nc1cccc(Cl)c1)C(=O)N[C@H](C(=O)NC)C(C)C)C(C)C [HIV-1 Protease Inhibitor, 6l] |
| 7 nM | CNC(=O)[C@@H](NC(=O)[C@H](OCc1cccc(C(=O)Nc2ccccc2)c1)[C@H](O)[C@@H](O)[C@@H](OCc1cccc(C(=O)Nc2ccccc2)c1)C(=O)N[C@H](C(=O)NC)C(C)C)C(C)C [HIV-1 Protease Inhibitor, 7f] |
| 2000 nM and 1330 nM | CNC(=O)[C@@H](NC(=O)[C@H](OCc1ccccc1C(=O)NCc1ccccc1)[C@H](O)[C@@H](O)[C@@H](OCc1ccccc1C(=O)NCc1ccccc1)C(=O)N[C@H](C(=O)NC)C(C)C)C(C)C [HIV-1 Protease Inhibitor, 6m] |
